Reference: PMC10722540, “Red Wine Inspired Chemistry: Hemisynthesis of Procyanidin Analogs and Determination of Their Protein Precipitation Capacity, Octanol–Water Partition, and Stability in Phosphate-Buffered Saline” (Journal of Agricultural and Food Chemistry, 2023)
Read-outs that look alike come from different tables or passages of the source.

Legend:
[1] = Octanol–water partition, shake-flask method; format: physicochemical; details: 200 μM, n-octanol/water, 2 h mixing, SE in parentheses; for logP at 2 h: read-out: log P (log10KOW)
Procedure: The shake-flask method was done using 2 mL Eppendorf tubes and three replicates. […] After mixing, aliquots of 500 μL were transferred to new Eppendorf tubes, and 500 μL of n-octanol was added that had been saturated with water. The solvent systems were mixed in a vortex mixer for 2 h, and then both the water and the n-octanol layers as well as the initial water solution were analyzed by UPLC–DAD using the shorter phenyl column (section 2.4). The chromatograms were integrated using TargetLynx software (version 4.2), and the octanol–water partition coefficient, log P, was calculated as the log10 of the ratio of area in n-octanol phase to the area in water phase. Recovery % was calculated by summing the areas in both phases and dividing the summation with the area measured from the initial water phase.

[2] = Stability in phosphate buffered saline; format: physicochemical; details: for half-life at 150 μM: phosphate buffered saline, read-out: half-life (t1/2); for half-life at 150 μM / half-life (t1/2): first-order kinetics, UV 280 nm, 150 μM; for starting material remaining (in words): after 26 h incubation in PBS; for stability in phosphate buffered saline (in words): first time point, approx. 15 min after adding PBS
Procedure: The stabilities of the compounds were measured in PBS, which was prepared from commercially available tablets that were dissolved in ultrapure water. The phosphate concentration was 0.01 M, the pH was 7.4, and the potassium and sodium chloride concentrations were 0.0027 and 0.137 M, respectively. […] The compounds were dissolved in 2 mL of the PBS solution in Eppendorf tubes, vortexed for approximately 15 min, and filtered through a 0.2 μm PTFE filter to a 2 mL UPLC vial. The solutions were analyzed with the UPLC-DAD-HESI-Orbitrap-MS instrument using the longer phenyl column (section 2.4), and repeated injections were done every 47.5 min for approximately 12 h. […] The UV chromatograms at 280 nm were integrated using the QuanBrowser module in Xcalibur software (version 4.1.31.9), and the main degradation products were identified in QualBrowser by their high-resolution mass spectra and UV spectra. With each compound, the measured areas were transformed to proportional areas by dividing all areas with the initial area in the first injection of the time series, and the data was further loge transformed and fitted with first-order linear regression curves. The regression curves were supplemented with 95% confidence intervals to visualize the uncertainty in the fitted curves. The half-lives were calculated from the slope (k) parameters of the linear regression model using the following equation: [drawing 1]

[3] = target: T1, bovine serum albumin (BSA) (Bos taurus, UniProt P02769); assay: UPLC–DAD analysis of supernatants from the PPC experiment (proportion of precipitated BSA); format: biochemical
T1 construct: purchased Sigma-Aldrich (MO, USA)
Procedure: (§1) PPC was measured by using the turbidimetric well-plate reader assay of Engström et al. (2019), with few modifications to the volumes of the reactants and to the number of replicates, for instance. The analyzes of the supernatants were done following Engström et al. (2022).[21] Briefly, 75 μL of BSA solution and 75 μL of the solutions of compounds 2–14 were pipetted to well plates, and the intensity of the forming haze was measured periodically at 420 nm using a well-plate reader. The PPC of the PC analogue 1 was not measured because it was not soluble in suitable solvents. The reactions were monitored for 30 min, and the highest intensities were recorded. A single background measurement was done at each concentration with all the components in the wells but the BSA. The reactions were done in triplicates (and in duplicates with PC C1), and the concentrations of the compounds 2–14 in the reaction mixtures were 0.25 0.65, 1.05, 1.45, 1.85, and 2.25 mM. The concentration of the BSA was kept constant at 0.1 mM. Therefore, the tested molar ratios to BSA were 2.5:1, 6.5:1, 10.5:1, 14.5:1, 18.5:1, and 22.5:1. After the 30 min, the supernatants and precipitates of the replicates were combined in a 1.5 mL Eppendorf tube and separated by centrifuging. The supernatants were then analyzed by UPLC–DAD using the shorter phenyl column (section 2.4) to quantify the leftover compounds 2–14 and BSA. Leftover BSA was quantified using a separately prepared linear calibration curve (1–125 μM), and the compounds 2–14 were quantified by analyzing the background solutions from the well-plate reader assay and constructing a calibration curve from these analyzes. BSA was quantified at 280 nm and compounds 2–14 at 280–320 nm. The wavelength of maximal UV absorption for compounds 2–14 could not be utilized in quantification because the diode array detector was saturated at the optimal wavelengths due to the high concentrations used in the well-plate reader assay. Therefore, off-optimal wavelengths were chosen for quantification separately for each compound 2–14 to reduce intensities and to obtain linear fits for calibration curves.

[4] = Octanol–water partition, shake-flask method; format: physicochemical; details: for logP / KOW: tentative values, experiment shorter than two hours because the compounds degraded; for logP: read-out: log P (log10KOW)
[5] = target: T1, bovine serum albumin (BSA); assay: Protein precipitation capacity (PPC), turbidimetric well-plate reader assay with BSA, log-normal dose–response model; format: biochemical; details: SE in parentheses; for ED90 (mM) / EC50: BSA 0.1 mM; for EC50: concentration giving 50% of maximal absorbance (420 nm haze), read-out: ED50 (the source's name); for slope: slope parameter of log-normal dose–response model
Procedure: as §1
All statistical analyzed were performed with R (version 4.2.2) in the integrated development environment Rstudio (version 2022.12.0.353).[23],[24] The PPC data was fitted with a dose–response model using the package drc.[25] Various models, e.g., logit and log-normal models, were compared using the mselect function, and the best fitting model was chosen based on the Akaike’s information criterion and residual error when comparing all models, and log-likelihood was used when comparing nested models. All compounds were assumed to have the same upper and lower asymptotes; the former was estimated from the experimental data, and the latter was fixed at zero.

[6] = pH 7.4, PBS pH 7.4, 0.01 M phosphate

T1 sequence (P02769 25-607): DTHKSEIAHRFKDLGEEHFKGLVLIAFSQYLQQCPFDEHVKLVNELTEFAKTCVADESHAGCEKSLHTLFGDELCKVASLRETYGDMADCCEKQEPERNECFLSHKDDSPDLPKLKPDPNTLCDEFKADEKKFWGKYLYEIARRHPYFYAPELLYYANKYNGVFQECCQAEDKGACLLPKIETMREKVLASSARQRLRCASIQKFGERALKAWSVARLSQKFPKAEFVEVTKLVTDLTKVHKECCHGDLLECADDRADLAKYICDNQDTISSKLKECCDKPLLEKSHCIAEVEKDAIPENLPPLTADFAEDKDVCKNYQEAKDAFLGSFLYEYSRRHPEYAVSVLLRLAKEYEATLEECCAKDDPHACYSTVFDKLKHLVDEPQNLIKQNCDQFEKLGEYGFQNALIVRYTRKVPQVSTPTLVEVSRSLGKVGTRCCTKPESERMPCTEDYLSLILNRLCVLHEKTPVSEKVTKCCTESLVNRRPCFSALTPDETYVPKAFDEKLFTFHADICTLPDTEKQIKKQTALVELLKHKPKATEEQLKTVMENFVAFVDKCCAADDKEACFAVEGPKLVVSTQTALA

| SMILES | KOW [1] | logP at 2 h [1] | half-life at 150 μM [2, 6] [h] | activity based on the proportions of precipitated BSA (in words) [3] | logP ([4]; n-octanol/water) | KOW [4] | ED90 (mM) [5] | EC50 [5] [mM] | slope [5] | half-life (t1/2) ([2]; PBS pH 7.4, 0.01 M phosphate) [h] | log P (log10KOW) ([4]; 200 μM, n-octanol/water, 2 h mixing, SE in parentheses) | starting material remaining (in words) [2] | half-life at 150 μM ([2]; PBS pH 7.4, 0.01 M phosphate) [h] | stability in phosphate buffered saline (in words) [2] | proportion of BSA precipitated ([3]; highest tested concentration of 2.25 mM (molar ratio to BSA 23:1)) |
| --- | --- | --- | --- | --- | --- | --- | --- | --- | --- | --- | --- | --- | --- | --- | --- |
| Oc1cc(O)c2c(c1)O[C@H](c1ccc(O)c(O)c1)[C@@H](O)C2 [Compound 15, catechin, reference compound] | 2.61 (0.03) | – | – | – | – | – | – | – | – | – | 0.42 (0.00) | majority of the starting materials remained | 22.3 | – | – |
| Oc1ccc([C@H]2Oc3c(c(O)cc(O)c3C(c3ccco3)c3c(O)cc(O)c4c3O[C@H](c3ccc(O)c(O)c3)[C@@H](O)C4)C[C@@H]2O)cc1O [Compound 5, Catechin–furanmethine–catechin] | 5.28 (0.02) | 0.72 | 8.85 | – | – | – | 2.58 (0.06) mM | 1.39 | 2.08 (0.07) | – | – | – | – | – | – |
| Oc1cc(O)c2c(c1)O[C@H](c1ccc(O)c(O)c1)[C@H](O)[C@H]2c1c(O)cc(O)c2c1O[C@H](c1ccc(O)c(O)c1)[C@H](O)C2 [Compound 12, PC B2, reference compound] | 0.13 (0.00) | -0.87 | 11.6 | practically inactive | – | – | – | – | – | – | – | – | – | – | – |
| O=C(O[C@@H]1Cc2c(O)cc(O)cc2O[C@@H]1c1cc(O)c(O)c(O)c1)c1cc(O)c(O)c(O)c1 [Compound 14, Epigallocatechin-3-gallate, reference compound] | 13.58 (0.06) | 1.13 | 1.4 | – | – | – | 1.76 (0.06) mM | 0.89 | 1.88 (0.07) | – | – | – | – | – | almost all |
| Oc1ccc([C@H]2Oc3c(Cc4c(O)cc(O)c5c4O[C@H](c4ccc(O)c(O)c4)[C@@H](O)C5)c(O)cc(O)c3C[C@@H]2O)cc1O [Compound 1] | 5.00 (0.05) | 0.7 | 3.45 | – | – | – | – | – | – | – | – | – | – | – | – |
| Oc1cc(O)c2c(c1)O[C@H](c1ccc(O)c(O)c1)[C@H](O)C2 [Compound 16, epicatechin, reference compound] | – | – | – | – | – | – | – | – | – | – | – | majority of the starting materials remained | 15 | – | – |

More lines, main results first:

| KOW [1] | logP at 2 h [1] | half-life at 150 μM [2, 6] [h] | activity based on the proportions of precipitated BSA (in words) [3] | logP ([4]; n-octanol/water) | KOW [4] | ED90 (mM) [5] | EC50 [5] [mM] | slope [5] | half-life (t1/2) ([2]; PBS pH 7.4, 0.01 M phosphate) [h] | SMILES | log P (log10KOW) ([4]; 200 μM, n-octanol/water, 2 h mixing, SE in parentheses) | starting material remaining (in words) [2] | half-life at 150 μM ([2]; PBS pH 7.4, 0.01 M phosphate) [h] | stability in phosphate buffered saline (in words) [2] | proportion of BSA precipitated ([3]; highest tested concentration of 2.25 mM (molar ratio to BSA 23:1)) |
| --- | --- | --- | --- | --- | --- | --- | --- | --- | --- | --- | --- | --- | --- | --- | --- |
| 0.16 (0.00) | -0.79 | 8.98 | practically inactive | – | – | – | – | – | – | Oc1cc(O)c2c(c1)O[C@H](c1ccc(O)c(O)c1)[C@@H](O)[C@@H]2c1c(O)cc(O)c2c1O[C@H](c1ccc(O)c(O)c1)[C@@H](O)C2 [Compound 11, PC B3, reference compound] | – | – | – | – | – |
| – | – | < 0.25 | – | -0.85 | 0.14 (0.01) | 2.61 (0.06) mM | 1.4 | 2.04 (0.06) | – | Oc1ccc([C@H]2Oc3c(c(O)cc(O)c3C(c3cc(O)c(O)c(O)c3)c3c(O)cc(O)c4c3O[C@H](c3ccc(O)c(O)c3)[C@@H](O)C4)C[C@@H]2O)cc1O [Compound 9] | – | – | – | completely degraded already at the first time point | – |
| 1.46 (0.01) | 0.16 | 2.05 | – | – | – | 3.45 (0.10) mM | 2.18 | 2.80 (0.13) | – | Oc1ccc([C@H]2Oc3c(Cc4c(O)cc(O)c5c4O[C@H](c4ccc(O)c(O)c4)[C@H](O)C5)c(O)cc(O)c3C[C@H]2O)cc1O [Compound 2, Epicatechin–methylene–epicatechin] | – | – | – | – | – |
| 0.04 (0.00) | -1.37 | 6.27 | – | – | – | 3.34 (0.09) mM | 2.03 | 2.57 (0.10) | – | O=C(O)C(c1c(O)cc(O)c2c1O[C@H](c1ccc(O)c(O)c1)[C@@H](O)C2)c1c(O)cc(O)c2c1O[C@H](c1ccc(O)c(O)c1)[C@@H](O)C2 [Compound 3] | – | – | – | – | – |
| 0.34 (0.00) | -0.47 | 1.4 | – | – | – | 2.61 (0.06) mM | 1.5 | 2.30 (0.08) | 0.917 to 1.4 | Oc1ccc(C(c2c(O)cc(O)c3c2O[C@H](c2ccc(O)c(O)c2)[C@H](O)C3)c2c(O)cc(O)c3c2O[C@H](c2ccc(O)c(O)c2)[C@H](O)C3)cc1O [Compound 8, Epicatechin–catecholmethine–epicatechin] | – | – | – | – | – |
| – | – | < 0.25 | – | -1.18 | 0.07 (0.00) | 2.41 (0.05) mM | 1.44 | 2.48 (0.08) | – | Oc1ccc([C@H]2Oc3c(c(O)cc(O)c3C(c3cc(O)c(O)c(O)c3)c3c(O)cc(O)c4c3O[C@H](c3ccc(O)c(O)c3)[C@H](O)C4)C[C@H]2O)cc1O [Compound 10] | – | – | – | completely degraded already at the first time point | – |
| 0.79 (0.00) | -0.1 | 0.917 | – | – | – | 2.53 (0.07) mM | 1.29 | 1.90 (0.06) | 0.917 to 1.4 | Oc1ccc(C(c2c(O)cc(O)c3c2O[C@H](c2ccc(O)c(O)c2)[C@@H](O)C3)c2c(O)cc(O)c3c2O[C@H](c2ccc(O)c(O)c2)[C@@H](O)C3)cc1O [Compound 7, Catechin–catecholmethine–catechin] | – | – | – | – | – |
| 2.08 (0.00) | 0.32 | 5.82 | – | – | – | 3.32 (0.09) mM | 1.83 | 2.15 (0.08) | – | Oc1ccc([C@H]2Oc3c(c(O)cc(O)c3C(c3ccco3)c3c(O)cc(O)c4c3O[C@H](c3ccc(O)c(O)c3)[C@H](O)C4)C[C@H]2O)cc1O [Compound 6, Epicatechin–furanmethine–epicatechin] | – | – | – | – | – |
| 0.02 (0.00) | -1.78 | 7 | – | – | – | 3.30 (0.08) mM | 2.03 | 2.64 (0.11) | – | O=C(O)C(c1c(O)cc(O)c2c1O[C@H](c1ccc(O)c(O)c1)[C@H](O)C2)c1c(O)cc(O)c2c1O[C@H](c1ccc(O)c(O)c1)[C@H](O)C2 [Compound 4, Epicatechin–carboxymethine–epicatechin] | – | – | – | – | – |
